Values quoted from earlier work in patent US20070166321A1, “Compositions and Methods for Reducing Cholesterol and Inflammation” (priority 2006, published 2007).
Entries after “also recorded” stand apart in the source; their conditions may differ.

Assays:
[1] = in vivo
[2] = test system: 12-O-tetradecanoylphorbol-13 acetate (TPA) induced inflammation; details: for 50%-inflammation reduction index ID50: TPA-induced inflammation
[3] = not given; remark: listed apart in the source

SMILES | increase of cardiovascular disease [1] [fold] | 50%-inflammation reduction index ID50 [2] [mg] | inhibition of TPA induced inflammation, potency comparison ([2]; compared with reference antiinflammatory drugs) | solubility in water | effect on glucose levels of non-diabetics [3]
CS(=O)(=O)c1ccc(C2=C(c3ccccc3)C(=O)OC2)cc1 [Vioxx] | ~4 | – | – | – | –
C[C@H]1[C@H](C)CC[C@]2(C(=O)O)CC[C@]3(C)C(=CC[C@@H]4[C@@]5(C)C[C@@H](O)[C@H](O)C(C)(C)[C@@H]5CC[C@]43C)[C@H]12 [corosolic acid] | – | 0.03 | potency similar to the antiinflammatory drug indomethasin; also recorded: potency similar to the antiinflammatory drugs indomethasin and hydrocortisone | low solubility in water | does not significantly reduce glucose levels
C[C@]12CCC(=O)C=C1CC[C@@H]1[C@@H]2[C@@H](O)C[C@@]2(C)[C@H]1CC[C@]2(O)C(=O)CO [hydrocortisone] | – | 0.03 | – | – | –
COc1ccc2c(c1)c(CC(=O)O)c(C)n2C(=O)c1ccc(Cl)cc1 [indomethacin] | – | 0.3 | – | – | –
